Experiment [1] has as its system SKOV3 or Panc3.27 tumor cells. As to the kind of experiment: In vitro combination study, fixed concentration of IAP inhibitor with varied combination agent. It counts as cell-based. The conditions noted are these: each agent alone. The procedure: (§1) On day one adherent SKOV3 and Panc3.27 cells are plated into two 96-well, clear, flat bottom plates. All wells in row A contain 90 uL of media. All wells in rows B-G contain a total volume of 90 uL per well and 2000 cells per well for SKOV3 and 4000 cells per well for Panc3.27 cell lines. Plates are then incubated overnight for 18 hours at 37° C., 5% CO2.
On day two cells are treated with the compounds of formula M-L-M′. Treatments are done in triplicate. The compounds are first serially diluted in DMSO and then added to media giving a final concentration of 0.2% DMSO when added to cells. […]
To measure cell viability 50 uL of Cell Titer Glo (CTG) solution is added to row A, media only and B, cells and media. […] After incubating for ten minutes with CTG plates are measured on a luminescent reader at 700 nm wavelength. Read time is approximately one second per well for a 96-well plate.
On day five 50 uL of CTG is added to plate one, rows A-G, incubated for 10 minutes at room temperature and read on a luminescent reader. […] Triplicate values are averaged and percent control growth is calculated. Percent control growth is calculated using the following logical test: If well read data point (a) is greater than time zero data point (t=0), then 100*[(a)−(t=0)]/[(72 hour total growth)−(t=0)], OR 100*[(a)−(t=0)]/[(t=0)]. […]

In a further experiment the target is XIAP-BIR3 (Homo sapiens, UniProt P98170). The experiment is described as follows: Biacore SPR solution competition binding assay vs smac7 mer peptide, XIAP-BIR3. The following applies: citrate salt form tested; 100 nM XIAP-BIR3; 25° C.; read-out: XIAP-BIR3 Binding Biacore (Competitive) EC50. From the text: (§2) The compounds described herein above were profiled using a cellular assay (using SKOV3 or Panc3.27 tumor cells) and a binding assay to determine the competition between the compounds of the present invention and smac7 mer peptide for XIAP-BIR3 and cIAP1-BIR3 binding groove occupancy.
Sequence of XIAP-BIR3 (P98170 241-356 limits assumed): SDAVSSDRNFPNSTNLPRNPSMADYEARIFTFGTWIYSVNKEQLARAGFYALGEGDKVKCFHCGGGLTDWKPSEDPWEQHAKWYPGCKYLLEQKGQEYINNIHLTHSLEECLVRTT
(§3) The present method includes utility of a Surface plasmon resonance (SPR)-based biosensor (Biacore™ GE Healthcare, Uppsala, Sweden) to examine competition between the compounds of the present invention and smac7 mer peptide for XIAP-BIR3 and cIAP1-BIR3 binding groove occupancy.
(§4) Biacore™ utilizes the phenomenon of surface plasmon resonance (SPR) to detect and measure binding interactions. In a typical Biacore experiment, one of the interacting molecules is immobilized on a flexible dextran matrix while the interacting partner is flowed over the derivatized surface. A binding interaction results in an increase in mass on the sensor surface and a corresponding direct change in the refractive index of the medium in the vicinity of the sensor surface. Changes in refractive index or signal are recorded in resonance units (R.U.) Signal changes due to association and dissociation of complexes are monitored in a non-invasive manner, continuously and in real-time, the results of which are reported in the form of a sensorgram.
(§5) Biacore™ T100 (GE Healthcare, Uppsala, Sweden) was used to conduct all experiments reported herein. Sensor surface preparation and interaction analyses were performed at 25° C. Buffer and Biacore reagents were purchased from GE Healthcare. Running buffer containing 10 mM Hepes, pH7.4, 150 mM sodium chloride, 1.25 mM Dithiothreitol, 2% Dimethyl sulfoxide and 0.05% polysorbate 20 was utilized throughout all experiments.
(§6) Biotinylated smac7 mer peptide was diluted to 10 nM in running buffer and captured onto a sensor surface pre-derivatized with streptavidin (sensor chip SA) towards peptide surface densities in the range 40-100 R.U. Peptide captured surfaces were blocked with 500 μM PEO2-Biotin (Thermo Scientific).
(§7) Interaction analyses were performed by first equilibrating each compound within a six point seven fold compound dilution series in the range 1 μM to 0.06 nM with either 100 nM XIAP-BIR3 or 6 nM cIAP1-BIR3 for at least one hour during instrument start-up procedures. Protein compound mixtures were then injected over reference and smac7 mer peptide surfaces in series for 60 seconds at a flow-rate of 64 μL/minutes. Surface regeneration was performed at the end of each analysis cycle by a 30 second injection of 10 mM Glycine, pH 2.5, 1M Sodium Chloride, 0.05% polysorbate 20. Additionally, control compound samples and control XIAP-BIR3 or cIAP1-BIR3 samples were prepared and run at regular intervals to monitor surface and assay performance.
(§8) Data analyses were carried out using Biacore™ T100 evaluation software v2.0 to validate assay quality. Binding level report points were plotted versus logarithmic compound concentration values and analyzed in Graphpad prism 5 via non-linear regression using a one-site competition model. EC50 values were generated and used as a measure of inhibitor potency.

For another experiment, the target named is cIAP1-BIR3 (Homo sapiens, UniProt Q13490). As to the kind of experiment: Biacore SPR solution competition binding assay vs smac7 mer peptide, cIAP1-BIR3. The conditions noted are these: citrate salt form tested; 6 nM cIAP1-BIR3; 25° C.; read-out: CIAP-BIR3 Binding Biacore (Competitive) EC50.
Sequence of cIAP1-BIR3 (Q13490 260-352 limits assumed): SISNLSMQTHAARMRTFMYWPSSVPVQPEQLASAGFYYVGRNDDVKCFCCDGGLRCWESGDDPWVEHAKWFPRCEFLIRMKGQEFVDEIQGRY
Source text: as §2, §3, §4, §5, §6, §7, §8
On the technique in general: Surface plasmon resonance follows binding to a sensor surface in real time, without labels.

The next experiment has as its system Panc3.27 tumor cells. As to the kind of experiment: Cellular assay, Panc3.27 tumor cell proliferation (Cell Titer Glo). The experiment is classed as cell-based. The following applies: citrate salt form tested, Panc3.27 cells, 72 hour growth, read-out: PANC proliferation IC50. As to the method: as §2, §1
(§9) On day two cells are treated with the compounds of formula M-L-M′. Treatments are done in triplicate. The compounds are first serially diluted in DMSO and then added to media giving a final concentration of 0.2% DMSO when added to cells. Cells are treated with 10 uL of serially diluted compounds of formula M-L-M′ at a final concentration of 1000 nM, 200 nM, 40 nM, 8 nM, 1.6 nM, 0.32 nM, 0.06 nM, 0.013 nM, 0.0026 nM, and one untreated well. Plate two is used as a time zero plate.
(§10) To measure cell viability 50 uL of Cell Titer Glo (CTG) solution is added to row A, media only and B, cells and media. CTG is purchased from Promega Corporation catalog number G7573. The solution is prepared according to manufacturer's instructions. CTG measures the amount of ATP released from viable cells that is proportional to the number of cells in each well. After incubating for ten minutes with CTG plates are measured on a luminescent reader at 700 nm wavelength. Read time is approximately one second per well for a 96-well plate.
(§11) On day five 50 uL of CTG is added to plate one, rows A-G, incubated for 10 minutes at room temperature and read on a luminescent reader. Raw data is adjusted to account for the time zero plate as well as background noise. Triplicate values are averaged and percent control growth is calculated. Percent control growth is calculated using the following logical test: If well read data point (a) is greater than time zero data point (t=0), then 100*[(a)−(t=0)]/[(72 hour total growth)−(t=0)], OR 100*[(a)−(t=0)]/[(t=0)]. Data is represented by line graph with the concentration of compound on the x axis and percent control growth on the y axis.
On the technique in general: In ATP-based viability assays light output follows the ATP content of the culture.

In a further experiment the test system is SKOV3 tumor cells. As to the kind of experiment: Cellular assay, SKOV3 tumor cell proliferation (Cell Titer Glo). The experiment is classed as cell-based. The conditions noted are these: Homo sapiens, SK-OV-3, citrate salt form tested, 72 hour growth. The procedure:
as §2, §1, §9, §10, §11

The structures appear in SMILES notation.

One may read the EC50 as the concentration at which the effect is half-maximal.

Take `CC(=O)O[C@H]1C(=O)[C@@]2(C)[C@H]([C@H](OC(=O)c3ccccc3)[C@]3(O)C[C@H](OC(=O)[C@H](O)[C@@H](NC(=O)c4ccccc4)c4ccccc4)C(C)=C1C3(C)C)[C@]1(OC(C)=O)CO[C@@H]1C[C@@H]2O` [Paclitaxel, paclitaxel, reference compound]: the “single agent activity in the in vitro combination study” value in experiment [1] is “neither Example 1J nor paclitaxel alone showed significant activity”.

`CN[C@@H](C)C(=O)N[C@@H](CCCCNC(=O)c1ccc(-c2ccc(C(=O)NCCCC[C@H](NC(=O)[C@H](C)NC)C(=O)N3CCC[C@H]3c3cncc(C(=O)c4ccc(F)cc4)c3)cc2)cc1)C(=O)N1CCC[C@H]1c1cncc(C(=O)c2ccc(F)cc2)c1` [Example 1J, Biphenyl-4,4′-dicarboxylic acid bis-{[(S)-6-{(S)-2-[5-(4-fluorobenzoyl)-pyridin-3-yl]-pyrrolidin-1-yl}-5-((S)-2-methylamino-propionylamino)-6-oxo-hexyl]-amide}]: the “single agent activity in the in vitro combination study” value in experiment [1] is listed as “neither Example 1J nor paclitaxel alone showed significant activity”. The EC50 on XIAP-BIR3 lay within 60.4 to 162 nM; on cIAP1-BIR3 it was 0.58 to 3.12 nM. Further, the figures for the IC50 in the experiment with Panc3.27 tumor cells and in the experiment on SKOV3 tumor cells were 0.0026 to 6.67 nM and 0.026 to 5.94 nM, respectively.

`CN[C@@H](C)C(=O)N[C@@H](CCCCNC(=O)CCCCCC(=O)NCCCC[C@H](NC(=O)[C@H](C)NC)C(=O)N1CCC[C@H]1c1cncc(C(=O)c2ccc(F)cc2)c1)C(=O)N1CCC[C@H]1c1cncc(C(=O)c2ccc(F)cc2)c1` [Example 1A, Heptanedioic acid bis-{[(S)-6-{(S)-2-[5-(4-fluoro-benzoyl)-pyridin-3-yl]-pyrrolidin-1-yl}-5-((S)-2-methylamino-propionylamino)-6-oxo-hexyl]-amide}]: the EC50 lay in the range of 126 to 131 nM on XIAP-BIR3 and 0.68 to 0.7 nM on cIAP1-BIR3. Further, the figures for the IC50 in the experiment on Panc3.27 tumor cells and with SKOV3 tumor cells were 72.4 to 427 nM and 41 to 77.1 nM, respectively.

With `CN[C@@H](C)C(=O)N[C@@H](CCCCNC(=O)c1cccc(C(=O)NCCCC[C@H](NC(=O)[C@H](C)NC)C(=O)N2CCC[C@H]2c2cncc(C(=O)c3ccc(F)cc3)c2)c1)C(=O)N1CCC[C@H]1c1cncc(C(=O)c2ccc(F)cc2)c1` [Example 1E, N,N′-Bis-[(S)-6-{(S)-2-[5-(4-fluoro-benzoyl)-pyridin-3-yl]-pyrrolidin-1-y}-5-((S)-2-methylamino-propionylamino)-6-oxo-hexyl]-isophthalamide], the EC50 on XIAP-BIR3 lay within 139 to 158 nM; on cIAP1-BIR3, 0.47 to 0.52 nM. For the same molecule, the IC50 in the experiment on Panc3.27 tumor cells fell in the range of 26.8 to 185 nM; in the experiment on SKOV3 tumor cells it was 26.7 to 79.4 nM.

Consider `CN[C@@H](C)C(=O)N[C@@H](Cc1ccc(NC(=O)CCCC(=O)Nc2ccc(C[C@H](NC(=O)[C@H](C)NC)C(=O)N3CCC[C@H]3c3cncc(C(=O)c4ccc(F)cc4)c3)cc2)cc1)C(=O)N1CCC[C@H]1c1cncc(C(=O)c2ccc(F)cc2)c1` [Example 2F, Pentanedioic acid bis-({4-[(S)-3-{(S)-2-[5-(4-fluoro-benzoyl)-pyridin-3-yl]-pyrrolidin-1-yl}-2-((S)-2-methylamino-propionylamino)-3-oxo-propyl]-phenyl}-amide)], for which the concentration for a half-maximal effect (EC50) was 123 to 126 nM on XIAP-BIR3 and 0.7 nM at cIAP1-BIR3. Besides, the IC50 in the experiment with Panc3.27 tumor cells was 88.3 to 393 nM; in the experiment on SKOV3 tumor cells, not below 967 nM.

In the case of `O=C(NCCCC[C@H](NC(=O)[C@@H]1CCN1)C(=O)N1CCC[C@H]1c1cncc(C(=O)c2ccc(F)cc2)c1)c1ccc(-c2ccc(C(=O)NCCCC[C@H](NC(=O)[C@@H]3CCN3)C(=O)N3CCC[C@H]3c3cncc(C(=O)c4ccc(F)cc4)c3)cc2)cc1` [Example 1K, Biphenyl-4,4′-dicarboxylic acid bis-[((S)-5-[((S)-azetidine-2-carbonyl)-amino]-6-{(S)-2-[5-(4-fluoro-benzoyl)-pyridin-3-yl]-pyrrolidin-1-yl}-6-oxo-hexyl)-amide]], the results for the EC50 on XIAP-BIR3 and at cIAP1-BIR3 were 636 to 704 nM and 18.4 to 19.4 nM, respectively. In addition, the IC50 was more than 10000 nM in the experiment on Panc3.27 tumor cells and 9420 to 9460 nM in the experiment with SKOV3 tumor cells.

With `CN[C@@H](C)C(=O)N[C@@H](Cc1ccc(NC(=O)CCCCCCCC(=O)Nc2ccc(C[C@H](NC(=O)[C@H](C)NC)C(=O)N3CCC[C@H]3c3cncc(C(=O)c4ccc(F)cc4)c3)cc2)cc1)C(=O)N1CCC[C@H]1c1cncc(C(=O)c2ccc(F)cc2)c1` [Example 2E, Nonanedioic acid bis-({4-[(S)-3-{(S)-2-[5-(4-fluoro-benzoyl)-pyridin-3-yl]-pyrrolidin-1-yl}-2-((S)-2-methylamino-propionylamino)-3-oxo-propyl]-phenyl}-amide)], the half-maximal effective concentration (EC50) is 99.4 to 104 nM on XIAP-BIR3 and 0.73 to 0.81 nM at cIAP1-BIR3. The IC50 was 37.6 to 95.7 nM in the experiment with Panc3.27 tumor cells and 17.1 to 23.5 nM with SKOV3 tumor cells.

(Values after patent US8445440B2, “Dimeric IAP inhibitors” (Novartis AG, priority 2010, dated 2013).)
